{
  "source": "patent US8143403B2",
  "about": "(Bristol-Myers Squibb Company, priority 2008, dated 2012)",
  "key": {"[1]": {"target": "T1, CGRP receptors (SK-N-MC cell membranes) (Homo sapiens, UniProt O60894+Q16602)", "T1 construct": "Crude membranes were prepared from SK-N-MC cells expressing CGRP receptors; endogenous in cells; host or cells: SK-N-MC cells (crude membranes)", "T1 sequence (Q16602 23-461)": "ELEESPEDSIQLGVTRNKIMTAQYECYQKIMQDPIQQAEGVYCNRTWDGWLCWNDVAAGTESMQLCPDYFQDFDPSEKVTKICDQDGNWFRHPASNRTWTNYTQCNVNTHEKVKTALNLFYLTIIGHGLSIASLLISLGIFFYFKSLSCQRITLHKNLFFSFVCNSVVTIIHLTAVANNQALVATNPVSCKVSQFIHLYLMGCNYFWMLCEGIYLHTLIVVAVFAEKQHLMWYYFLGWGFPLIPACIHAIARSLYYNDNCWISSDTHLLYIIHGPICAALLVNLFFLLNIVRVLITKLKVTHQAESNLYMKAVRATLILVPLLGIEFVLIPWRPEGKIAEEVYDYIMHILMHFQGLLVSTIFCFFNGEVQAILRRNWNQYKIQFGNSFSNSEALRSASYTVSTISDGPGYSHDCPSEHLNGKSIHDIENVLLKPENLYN", "T1 sequence (O60894 27-148)": "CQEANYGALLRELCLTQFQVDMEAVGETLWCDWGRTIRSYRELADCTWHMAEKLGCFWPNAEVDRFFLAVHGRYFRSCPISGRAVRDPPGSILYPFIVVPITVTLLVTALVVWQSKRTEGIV", "test": "Saturation/Scatchard analysis of [125I]-CGRP binding to SK-N-MC cell membranes", "protocol": "FIG. 1. [^125I]-CGRP Saturation/Scatchard Analysis. [^125I]-CGRP saturation using SK-N-MC membranes in the absence (filled squares) and presence (all others) of CGRP antagonist example 20. Inset depicts a Scatchard plot of same data.\nSaturation/Scatchard Analysis. The nature of the interaction between the human CGRP peptide and example 20 was studied in detail using saturation binding experiments. The binding of increasing concentrations of [^125I]-CGRP to SK-N-MC cell membranes was measured in the absence (control condition) and in the presence of 300 pM and 600 pM example 20. Saturation data were analyzed using a one site binding equation to estimate apparent equilibrium dissociation constant (Kd) and the maximum number of binding sites (Bmax) (Prizm v4.0, Graphpad). The impact of the addition of example 20 to the binding parameters (Kd, Bmax) of [^125I]-CGRP binding was measured and compared. […] Example 20 was evaluated in 3 separate experiments (for representative dataset, see FIG. 1. [^125I]-CGRP Saturation/Scatchard Analysis). Functional Antagonism/Schild analysis. Agonist stimulation of CGRP receptor complex leads to cyclic AMP (adenosine 3′5′-cyclic monophosphate) production via Gs-dependent activation of an adenylate cyclase (Juaneda C et al., TiPS, 2000; 21:432-438). Consequently, CGRP receptor antagonists inhibit CGRP-induced cyclic AMP formation in SK-N-MC cells which natively express the CGRP receptor complex (Doods H et al., Br J Pharmacol, 2000; 129(3):420-423). Example 20 was evaluated for its ability to block CGRP induced cAMP formation using a commercially available cAMP HTRF kit (catalog number 62AM2PEC, CisBio International). […] The cells were lysed with lysis reagent and cAMP concentrations were determined by HTRF according to the manufacturer's instructions. A standard curve using known quantities of cAMP was evaluated in parallel to allow conversion of HTRF ratio to nM cAMP. The resulting curves were then evaluated using a Gaddum/Schild equation individually and with global fitting (Prizm v4.0, Graphpad). […]"}, "[2]": {"target": "T2, Human CGRP Receptor (Homo sapiens, UniProt O60894+Q16602)", "T2 construct": "Crude membranes were prepared from SK-N-MC cells expressing CGRP receptors; endogenous in cells; host or cells: SK-N-MC cells (crude membranes)", "T2 sequence (Q16602 23-461)": "as the sequence (Q16602 23-461) above", "T2 sequence (O60894 27-148)": "as the sequence (O60894 27-148) above", "test": "Radioligand binding assay, [125I]-CGRP displacement on SK-N-MC membranes", "conditions": "displacement of [125I]-CGRP (18 pM final), 2 h room temperature", "protocol": "Tissue Culture. SK-N-MC cells were grown at 37° C. in 5% CO2 as a monolayer in medium consisting of MEM with Earle's salts and L-glutamine (Invitrogen) supplemented with 10% fetal bovine serum (Invitrogen).\nMembrane Preparation. Crude membranes were prepared from SK-N-MC cells expressing CGRP receptors. The cells were rinsed twice with phosphate-buffered saline (155 mM NaCl, 3.3 mM Na2HPO4, 1.1 mM KH2PO4, pH 7.4), and incubated for 5-10 min. at 4° C. in hypotonic lysis buffer consisting of 10 mM Tris (pH 7.4) and 5 mM EDTA. The cells were transferred from plates to polypropylene tubes (16×100 mm) and homogenized using a polytron. Homogenates were centrifuged at 32,000×g for 30 min. The pellets were resuspended in cold hypotonic lysis buffer with 0.1% mammalian protease inhibitor cocktail (Sigma) and assayed for protein concentration. The SK-N-MC homogenate was aliquoted and stored at −80° C. Radioligand Binding Assay. The compounds of invention were solubilized and carried through serial dilutions using 100% DMSO. Aliquots from the compound serial dilutions were further diluted 25 fold into assay buffer (50 mM Tris-Cl pH 7.5, 5 mM MgCl2, 0.005% Triton X-100) and transferred (volume 50 μl) into 96 well assay plates. [^125I]-CGRP (GE Healthcare or Perkin-Elmer) was diluted to 72 pM in assay buffer and a volume of 50 μl was added to each well. SK-N-MC membranes were thawed, diluted in assay buffer with fresh 0.1% mammalian protease inhibitor cocktail (Sigma), and re-homogenized. SK-N-MC homogenate (7 μg/well) was added in a volume of 100 μl. The assay plates were then incubated at room temperature for 2 h. Assays were stopped by addition of excess cold wash buffer (50 mM Tris-Cl pH 7.5, 0.1% BSA) immediately followed by filtration over glass fiber filters (Whatman GF/B) previously soaked in 0.5% PEI. Non-specific binding was defined with 1 μM beta-CGRP (Bachem). Protein bound radioactivity was determined using a gamma or scintillation counter. The resulting data was analyzed using a four parameter competitive binding equation (XLfit v2.0) and the IC50 was defined as the concentration of a compound of invention required to displace 50% of radioligand binding. Final assay concentration of [^125I]-CGRP was 18 pM. […] All compounds of invention were evaluated in at least two separate experiments."}},
  "data": [
    {"smiles": "O=C(O[C@@H]1CC[C@@H](c2cccc(F)c2F)Cc2cccnc21)N1CCC(n2c(=O)[nH]c3ncccc32)CC1", "note": "[Example 20]", "values": [
      {"measurement": "effect on maximum binding sites of [125I]-CGRP binding (Bmax)", "setting": "[1]; 300 pM and 600 pM example 20 vs control", "result": "without significantly changing the maximum binding sites"},
      {"measurement": "effect on Kd of [125I]-CGRP binding", "setting": "[1]; 300 pM and 600 pM example 20 vs control, 3 experiments", "result": "dose-dependently increased the Kd"},
      {"measurement": "mechanism of inhibition of [125I]-CGRP binding", "setting": "[1]; saturation binding", "result": "competitive mechanism of inhibition"},
      {"measurement": "IC50", "setting": "[2]", "result": 0.12, "unit": "nM"}
    ]}
  ]
}
